{"source": "patent US9717727B2", "about": "“Methods of treating and preventing leukemia and other cancers of the blood and bone” (The Trustees of Columbia University in the City of New York, priority 2011, dated 2017)", "key": {"[1]": {"test_system": "EL4-GFP-Luc lymphoma/lymphoblastic cells", "test": "EL4-GFP-Luc lymphoblastic leukemia mouse model, long-term oral LP-533401 treatment (Example 9)", "assay_type": "in vivo, mice", "protocol": "8- to 10-week-old immunocompetent male mice were inoculated with tumor cells by tail vein injection. The EL4 cell line was established from a lymphoma-induced tumor in a C57BL mouse by 9,10-dimethyl-1,2-benzanthacene. An EL4 cell line transduced with green fluorescence protein and luciferase, EL4-GFP-Luc, was injected via the lateral tail vein of the B6(Cg)-Tyrc-2J mice (500,000 cells per mouse). The EL4-GFP-Luc fusion gene was used to allow cell trafficking and tumor progression to be assessed by an in vivo imaging system.\nLeukemia engraftment and progression was monitored using the Xenogen IVIS-200 System (IVIS® imaging system, Xenogen Corporation), an in vivo imaging technology platform that allows non-invasive visualization, and tracking of cellular and genetic activity within a living organism. The system consists of a CCD camera mounted on a light-tight specimen chamber, a camera controller, a cryogenic cooler, a fluorescence light source and a computer system for data acquisition and analysis. The system is capable of imaging bioilluminescence and fluorescence in living animals.\nIn this study, since luminescence was being detected, luciferin as a substrate of luciferase was administered to the mice. The mice were monitored using the in vivo imaging system twice per week. Mice were anaesthetized using isoflurane, and then were injected intraperitoneally with luciferin (0.15 mg per g body weight) 10 minutes before the detection point. Mice were imaged using the in vivo system, setting the exposure time to 1 minute. Bioilluminescence intensity was recorded and counted.\nBlood was collected by cardiac puncture in EDTA (CBCs and blood smears) or non-EDTA (serum) coated tubes. For serum preparation, blood was kept at room temperature for 15 minutes and centrifuged at 15,700 g for 10 min at 4° C. Serum osteocalcin was measured using the Osteocalcin IRMA kit (Immutopics).\nTime-to-event analysis was used to assess two endpoints of interest, death and paralysis. The day which mice were inoculated with tumor cells was considered Day 1. Animals were followed up to 62 days. […] Kaplan-Meier curves were generated to illustrate time to death and paralysis, stratified by group status. Statistical significance of the between-group difference in the median time-to-endpoint was assessed by the log-rank test. Statistical analyses were performed using the EXCEL-XLSTAT and SAS softwares0. A P value less than 0.05 was considered statistically significant.\nMice injected with the EL-4 cell line, EL4-GFP-Luc, were used as described in Example 2. The imaging system describe in Example 2 was used.\n(§1) Mice were treated orally with LP-533401 (25 or 200 mg per kg of body weight per day) or vehicle. Treatments started 15 days before malignant cell injections in all sets of experiments, and continued for the indicated periods of time. LP-533401 was dissolved in polyethylene glycol (PEG) and 5% dextrose or 2.5% glucose (Sigma), and given daily by oral gavage. Mice treated with vehicle were administered, in the same way as LP533401, a solution of PEG and 5% dextrose or 2.5% glucose, daily, by oral gavage.\nThe mice were divided into four groups of mice: • Mice with no leukemia treated with a vehicle, i.e., non-leukemic-vehicle-treated (“WT”); • Mice with no leukemia treated with LP533401, i.e., non-leukemic-LP-533401-treated (“NL-LP”); • Mice with leukemia treated with a vehicle, i.e., leukemic-vehicle-treated (“Leuk-veh”); and • Mice with leukemia treated with LP-533401, leukemic-LP533410-treated (“Leuk-LP”).\nTreatment of the non-leukemic mice with the vehicle or LP-533401 lasted a total of 35 days and treatment of the leukemic animals with a vehicle or LP-533401 continued until the day mice were sacrificed, which occurred at different time points, depending upon the presence of signs of illness. […]"}, "osteoblasts": {"test_system": "osteoblasts", "test": "Histomorphometric bone analysis, EL4 study (Example 9)", "assay_type": "in vivo, mice", "protocol": "Histomorphometric analyses were performed on vertebral column specimens collected from 2 months old mice using undecalcified sections using the osteomeasure analysis system (Osteometrics). Lumbar vertebrae were dissected, fixed for 24 hours in 10% formalin, dehydrated in graded ethanol series, and embedded in methyl methacrylate resin according to standard protocols (Chappard et al. (1987); Parfitt et al. (1987)).\nBone formation rate (BFR) was analyzed by the calcein double-labeling method. Calcein (Sigma) was dissolved in calcein buffer (0.15 M NaCl, 2% NaHCO3) and administered by an intraperitoneal injection of 25 μg/g body weight, 6 days and 2 days before sacrificing the animals. In experiments evaluating survival rates of animals, bone formation rate was not calculated due to the unknown time of death. Unstained 4-μm sections were used for BFR measurements.\nFor the analysis of parameters of osteoblast and osteoclast, 4-μm sections were stained with toluidine blue and tartrate-resistant acid phosphatase (TRAP), respectively. Type I collagen content and bone volume over trabecular volume (BV/TV) were analyzed using 7-μm sections by Von Gieson and Von Kossa staining […] respectively in undecalcified sections. Images were taken using a 10× objective on a Leica microscope outfitted with camera. Six to ten animals were analyzed for each group.\nas §1\nBioluminescence imaging, luciferase intensity measurement, hind-limb paralysis, blood cell counts, bone mass, osteoblast number, bone formation rate and survival were determined as previously described in Examples 2, 3, and 5-7."}, "serotonin": {"test_system": "serotonin", "conditions": "six consecutive doses, cited from earlier work"}, "[2]": {"conditions": "among ten leukemic mice treated"}, "[3]": {"conditions": "leukemic mice (EL4), peripheral blood"}, "[4]": {"conditions": "LP-533401 25 or 200 mg/kg/day oral"}}, "note": "Where two headings read alike, the source gives them in different places."}
{"smiles": "Nc1nc(OC(c2ccc(-c3cccc(F)c3)cc2)C(F)(F)F)cc(-c2ccc(C[C@H](N)C(=O)O)cc2)n1", "note": "(stereo partly drawn) [LP-533401]", "values": [{"measurement": "number of treated leukemic mice that cleared their leukemia", "setting": "[1]; [2]", "value": 2}, {"measurement": "number of treated leukemic mice that never developed leukemia", "setting": "[1]; [2]", "value": 2}, {"measurement": "number of treated leukemic mice that developed leukemia at a late stage and then recovered", "setting": "[1]; among ten leukemic mice treated, day 28", "value": 1}, {"measurement": "animals that developed hind-limb paralysis", "setting": "[1]; leukemic mice (EL4)", "value": 38, "unit": "%"}, {"measurement": "reticulocyte numbers", "setting": "[1]; leukemic mice (EL4)", "value": "prevented leukemia induced suppression of reticulocyte numbers"}, {"measurement": "tumor burden by bioluminescence imaging / luciferase intensity", "setting": "[1]; leukemic mice (EL4)", "value": "decreased tumor burden"}, {"measurement": "anemia (red blood cells, hemoglobin, hematocrit)", "setting": "[1]; [3]", "value": "ameliorated anemia"}, {"measurement": "leukemia-associated increase in WBCs", "setting": "[1]; [3]", "value": "diminished"}, {"measurement": "neutrophils, monocytes and lymphocytes", "setting": "[1]; [3]", "value": "restored to normal numbers"}, {"measurement": "overall survival", "setting": "[1]; mice with leukemia (EL4)", "value": "significantly longer overall survival"}, {"measurement": "bone resorption", "setting": "osteoblasts; EL4 study", "value": "not affected"}, {"measurement": "increase in bone formation rate", "setting": "osteoblasts; [4]", "value": 30, "unit": "%"}, {"measurement": "increase in bone mass", "setting": "osteoblasts; [4]", "value": 30, "unit": "%"}, {"measurement": "increase in osteoblast numbers", "setting": "osteoblasts; [4]", "value": 30, "unit": "%"}, {"measurement": "leukemia-induced decrease in osteoblast numbers, bone formation rate and trabecular bone volume", "setting": "osteoblasts; leukemic mice (EL4)", "value": "inhibited the decrease in osteoblast numbers, bone formation rate, and trabecular bone volume"}, {"measurement": "serotonin levels in the small intestine lowered", "setting": "serotonin; 30 mg/kg twice per day", "value": 55, "unit": "%"}, {"measurement": "serotonin levels in the small intestine lowered", "setting": "serotonin; 90 mg/kg twice per day", "value": 70, "unit": "%"}, {"measurement": "brain-derived serotonin", "setting": "serotonin; 30 or 90 mg/kg twice per day", "value": "unchanged"}]}
